Tests used:
[1] = molecular target: T1, L55P variant transthyretin (Homo sapiens, UniProt P02766, L75P); test: Inhibition of transthyretin aggregation at acidic pH (turbidity at 400 nm); type: biochemical
Method: 3.3.2 Inhibition of transthyretin aggregation by 4ajm15: In pilot experiments, transthyretin aggregates were formed from wild type transthyretin (3.6 μM) after incubation at acidic pH for 3 d at 37° C. (Colon and Kelly, 1992). The efficacy of 4ajm15 as an inhibitor of transthyretin aggregate formation was then compared with other transthyretin ligand compounds. […] After 30 min at 37° C., the pH was adjusted to pH 4.4 (with 0.2 M sodium acetate buffer pH 4.0), and the ˜1 ml mixtures were incubated unstirred for 3 d at 37° C.
Using the same method the activities of mds84 and 4ajm15 as inhibitors of the aggregation of both wild type transthyretin and the most aggressively aggregating transthyretin variant, L55P, were evaluated in triplicate with both proteins at 3.6 μM and with one (3.6 μM) or 3 equivalents (10.8 μM) of each ligand. Wild type transthyretin was studied at pH 4.4 and L55P at pH 5.0. […] Mean values and standard deviations are shown in Table 2 and in FIG. 4, where results with 1:1 molar ratio are shown cross hatched and 3:1 molar ratio in open bars.

[2] = molecular target: T2, native wild type transthyretin (Homo sapiens, UniProt P02766); test: Gel filtration (Superdex 200) of transthyretin-ligand complexes; type: binding; conditions: for A280/A330 ratio of main component eluting at 14.4 ml: 2 nanomoles transthyretin incubated 1 h with 1 μl of 4 mM ligand in DMSO, PBS; for dissociation of ligand from the complex during gel filtration: after 100 volume solvent exchanges
T2 construct: isolated from pooled normal human plasma, was obtained from Scipac; purchased Scipac Ltd, Sittingbourne, Kent, UK; host or cells: pooled normal human plasma
Method: 1.3 Gel filtration. Native transthyretin was eluted with either PBS or 150 mM ammonium bicarbonate (pH 7.6) from a Superdex 200 (30×1.0 cm) column, run on an ÅKTA Explorer system, as a UV absorbing peak (A280/A330˜30 to 50:1) with Ve 14.4 ml (FIG. 1). A minor (<5%) higher molecular weight component eluting at 12.5 ml was always seen.
3.1.1. Binding of 4ajm15 and mds84 by transthyretin. One μl (5.3 nmol) of a concentrated (5.3 mM) solution of 4ajm15 in DMSO was added to 3.8 nmol of transthyretin in 100 μl PBS (1.4 fold molar excess of ligand) and incubated at room temperature for 30 min. The sample was chromatographed on Superdex 200, where the transthyretin-4ajm15 complex eluted at 14.4 ml, with a reduced A280/A330 ratio (˜5:1) consistent with binding. A similar result was obtained with transthyretin and 4ajm15 when chromatography was undertaken in volatile ammonium bicarbonate buffer. A similar result was also obtained when mds84 (2 nmol) was first dried into a tube and then resuspended in 5 μl of DMSO before adding the protein solution. In further experiments, 2 nanomoles of native wild type transthyretin (Scipac) were incubated in 55 μl of PBS for 1 h with either 1 μl DMSO (control) or 1 μl of a 4 mM solution in DMSO of mds84 or 4ajm15. Samples were chromatographed on a Superdex 200 column (30×1 cm) in PBS at 0.5 ml/min, with 0.5 ml fractions collected (FIG. 1). […] The full UV spectra of the main components were determined in each case and were consistent with a transthyretin:ligand ratio of ˜1:0.9.

transthyretin = molecular target: T3, transthyretin (Homo sapiens, UniProt P02766); test: Intrinsic fluorescence quenching of transthyretin by ligand titration; type: binding; conditions: 1 μM transthyretin, PBS pH 7.4, ligand 0-2 μM, excitation 280 nm, 20° C.
T3 construct: Native tetrameric transthyretin was purified from fractionated human plasma; from tissue; host or cells: human plasma
Method: 3.2.1. Binding of 4ajm15 and mds84 by transthyretin. The interactions between the ligands 4ajm15 or mds84 and transthyretin were studied by monitoring intrinsic fluorescence in the emission range 300-500 nm on excitation at 280 nm using a Perkin Elmer LS55 fluorimeter and a standard 1 cm path length quartz cell at 20° C. Quenching of tryptophan was achieved by titrating 1 μM transthyretin in PBS, pH 7.4 with increasing concentrations of each ligand in the range 0-2 μM (FIG. 2A). […] At the same time the changes in 4ajm15 fluorescence upon binding to the protein were monitored in the emission range 400-600 nm and excitation at 340 nm that is the wavelength specific for 4ajm15 excitation. In these conditions, accumulation of the spectra highlights an isosbestic point at 483 nm (FIG. 2B). The same results were achieved by using mds84 (not shown). The results of the titration of 4ajm15 in presence and absence of transthyretin support a model of binding in which both the binding sites are simultaneously occupied by the palindromic ligand.
In each case increasing concentrations of ligand (0-2 μM) were added to 1 μM protein. The arrow in FIG. 2B indicates the isosbestic point at 483 nm occurring on formation of the protein ligand complex. […] The percent quenching represents ΔF/F0 where F0 is fluorescence intensity prior to the addition of ligands and AF is the decrease in fluorescence at a given ligand concentration.

[3] = molecular target: T1, L55P variant transthyretin; test: Mass spectrometric analysis of subunit exchange; type: biochemical; design: made in house; conditions: for subunit exchange of L55P transthyretin: in words
Method: 4.2 Mass spectrometric analysis of subunit exchange. Recombinant wild type, L55P and V30M transthyretin variants were biosynthetically labelled with isotopes [^15N] and [^15N, ^13C] as previously described (Keetch C A et al, 2005). Immediately prior to analysis, proteins were buffer exchanged into 20 mM ammonium acetate, pH 7.0 using Micro Biospin columns (Bio-Rad, UK). The subunit composition of transthyretin was monitored as a function of time by incubating an equimolar solution (4.4 μM) of [^15N] and [^15N, ^13C] labelled proteins in the presence of 2-fold molar excess of 4ajm15 in DMSO or 2.5% DMSO alone as a control. Each experiment was carried out in triplicate at room temperature and at 4° C. as well, since it is known that subunit exchange is accelerated at low temperatures. Nanoflow ESMS was performed on a QToF2 instrument (Waters/Micromass UK, Ltd.) modified for high mass operation (Sobott et al, (2002)) and calibrated externally using caesium iodide (100 mg/ml). Each solution, 1.5 μl, was electrosprayed from gold coated borosilicate capillaries prepared in-house as described (Nettleton E J, et al, 1998). To preserve the non-covalent interactions in the transthyretin tetramer, the MS parameters applied were: capillary voltage 1.6 kV, sample cone 160 V, extractor cone 20 V, ion transfer stage pressure 7.0×10 ^−3 mbar, quadrupole analyzer pressure 9.5×10^−4 mbar and ToF analyzer pressure 1.7×10^−6 mbar. Data were processed with MassLynx software (Waters/Micromass UK, Ltd.) and are presented with minimal smoothing and without background subtraction.
This most unstable transthyretin variant rapidly undergoes spontaneous and extensive subunit exchange, as illustrated in FIG. 8. FIGS. 9-11 show the effects of decreasing molar ratios of mds84 on inhibition of subunit exchange. […] At lower molar ratios of mds84 some exchange takes place but the transthyretin molecules which bind mds84 are still completely stabilized.

aggregation of L55P in the presence of ligand ([1]; L55P, pH 5.0, results not shown, in words)	A280/A330 ratio of main component eluting at 14.4 ml [2]	dissociation of ligand from the complex during gel filtration [2]	intrinsic fluorescence of transthyretin remaining after titration (transthyretin) [%]	subunit exchange of L55P transthyretin [3]	Aggregation of transthyretin, Mean (1:1) ([1]; L55P 3.6 μM, ligand 3.6 μM, pH 5.0)	Aggregation of transthyretin, Mean (3:1) ([1]; L55P 3.6 μM, ligand 10.8 μM, pH 5.0)	ligand bound per mole of transthyretin for complete stabilization ([3]; L55P variant, decreasing molar ratios of ligand)	Structure (SMILES)
identical to those with mds84	~4.6	negligible dissociation	40	Exactly the same effect				O=C(O)c1ccccc1Nc1cc(Cl)c(OCCCCCCCCCCCOc2c(Cl)cc(Nc3ccccc3C(=O)O)cc2Cl)c(Cl)c1 [4ajm15, 2,2′-(4,4′-(undecane-1,11-diylbis(oxy))bis(3,5-dichloro-4,1-phenylene))bis(azanediyl)dibenzoic acid]
	~4.6	negligible dissociation	40	completely inhibits all subunit exchange	17 per cent of control with DMSO alone	9.9 per cent of control with DMSO alone	one mole	O=C(O)c1ccccc1Nc1cc(Cl)c(OCCCCCCCOc2c(Cl)cc(Nc3ccccc3C(=O)O)cc2Cl)c(Cl)c1 [mds84, 2,2′-(4,4′-(heptane-1,7-diylbis(oxy))bis(3,5-dichloro-4,1-phenylene))bis(azanediyl)dibenzoic acid]

Source: patent US8236984B2, “Compound and use thereof in the treatment of amyloidosis” (Pentraxin Therapeutics Ltd., priority 2007, dated 2012)
